Experiments:
Type in all cases: in vivo, rat
[1] = test system: cold model of immunocompromised rats; test: Cold model of immunocompromised rats induced by cyclophosphamide: body temperature; settings: SD rats cold model, Sample-1 150, Sample-2 75, Sample-3/-4/-5 150, Sample-6 30 mg/kg
From the text: (§1) […] were divided into 20 cages, 5 SD rats in each cage, 2 cages in each group, 1 cage for male and female respectively. After 7 days of adaptive growth, 70 rats were used for drug administration evaluation and the construction of rat upper respiratory tract infection model, and the remaining 10 rats were used for normal control. During the whole experiment, the animals were looked after and treated in strict accordance with the animal ethics law.
(§2) After the adaptive growth, the drug was given by gavage once a day for each SD rat. The Placebo group and the normal control group were given the same volume of drug solution (i.e. normal saline) every day for 4 weeks, i.e. 28 days.
(§3) 1) On the 14th day after gavage administration, rats in the model group were intraperitoneally injected with cyclophosphamide for 3 consecutive days and strengthened once on the 20th day to prepare the immunosuppressive model.
(§4) 2) On the 21st day, after the rats were placed in a low temperature environment overnight (4° C.), the cold symptoms such as burnout, decreased food intake and increased nasal secretion were found, which was regarded as successful modeling.
(§5) 3) During the period of normal administration, the administration was ended on the 28th day, and the rats were killed.
(§6) The body weight of rats was measured once a week. During the administration, the general conditions, behavioral characteristics and death status of rats in each group, such as appetite, hair color and body posture, were observed. Nasal secretion and body temperature were observed ever day.

[2] = Cold model of immunocompromised rats induced by cyclophosphamide: body weight; settings: SD rats, Sample-1 150, Sample-2 75, Sample-3/-4/-5 150, Sample-6 30 mg/kg
From the text: as §1, §2, §3, §4, §5, §6

[3] = test system: IL-1β, IFN-γ, IgG, IgM, sIgA; test: Cold model rats: cytokines in serum and saliva by ELISA; settings: SD rats cold model, gavage 28 days, Sample-1 150, Sample-2 75, Sample-3/-4/-5 150, Sample-6 30 mg/kg
Protocol: 1) On the second day after the last administration, the rats were anesthetized by intraperitoneal injection of 10% chloral hydrate with the anesthetic dosage of 0.35 ml/100 g;
2) The abdominal cavity was opened, and a 5 ml sterile syringe was inserted into the abdominal vein of the rats, and the venous blood was drawn:
3) The drawn venous blood was put into a heparin tube, mixed well, and left in a chromatography freezer at 4° C. overnight.
4) After centrifugation at 14000 rpm at 4° C. for 15 minutes, the supernatant was taken and stored at −80° C. for use.
2) SD rats were fixed in the supine and low head position, sterile cotton swabs were inserted into the upper respiratory tract of rats, dipped in rat saliva, and immediately placed in precooled normal saline and stored at −80° C. for use.
The final serum was used for IL-1β, IL-6, IL-12, IFN-γ, IgG, IgM, and saliva was used for the determination of sIgA. The determination steps were as follows:
1) taking out the ELISA kit from the refrigerator and balancing it at room temperature for 20 min;
3) after sealing the film with a film sealing plate, placing it in a 37° C. incubator for incubation for 30 min;
4) discarding the liquid in the wells, gently drying it, and adding 50 μL biotin labeled antibody working solution to each well, and incubating in a 37° C. incubator for 30 min;
5) carefully removing the sealing film, pouring out the liquid in the wells, gently spin drying it, adding washing liquid into each well, standing at room temperature for 30 seconds and then pouring it out, repeating this operation for 5 times and gently patting it dry;
6) adding 50 μL horseradish peroxidase labeled avidin working solution to each well, and incubating in a 37° C. incubator for 30 min;
7) pouring out the liquid in the wells, gently spin drying it, adding washing liquid into each well, standing at room temperature for 30 seconds and then pouring it out, repeating this operation for 5 times and gently patting it dry; and
8) adding […] color developing solution to each well in turn, and developing color in a 37° C. incubator without light for 15 min;
9) adding 50 μL termination solution to each well to terminate the reaction, then zeroing the blank wells and measure the absorbance (OD value) of each well at 450 nm wavelength, where the determination shall be carried out within 15 min after the termination solution is added.

O=C1O[C@H]([C@@H](O)CO)C(O)=C1O [Sample-6, VC]
temperature Day 15 ([1]; Day 15): 36.84 ± 0.22
temperature Day 16 ([1]; Day 16): 36.78 ± 0.48
temperature Day 17 ([1]; Day 17): 36.9 ± 0.33
temperature Day 18 ([1]; Day 18): 36.6 ± 0.19
temperature Day 19 ([1]; Day 19): 36.63 ± 0.28
temperature Day 20 ([1]; Day 20): 36.69 ± 0.22
temperature Day 21 ([1]; Day 21): 36.41 ± 0.3
temperature Day 22 ([1]; Day 22): 37.89 ± 0.53
temperature Day 23 ([1]; Day 23): 38.23 ± 0.64
temperature Day 24 ([1]; Day 24): 38.11 ± 0.56
temperature Day 25 ([1]; Day 25): 37.87 ± 0.4
temperature Day 26 ([1]; Day 26): 37.41 ± 0.4
temperature Day 27 ([1]; Day 27): 37.32 ± 0.28
temperature Day 28 ([1]; Day 28): 37.62 ± 0.31
weight week 1 ([2]; week 1): 200.37 ± 8.23 g
weight week 2 ([2]; week 2): 217.99 ± 12.26 g
weight week 3 ([2]; week 3): 193.64 ± 12.51 g
weight week 4 ([2]; week 4): 173.58 ± 7.48 g
weight week 0 ([2]; gavage once a day 28 days, week 0): 184.61 ± 7.84 g
serum IFN-γ content ([3]; final serum): 170.49 ± 21.44 pg/mL
serum IL-β content ([3]; final serum): 100.12 ± 27.51 pg/mL
serum IgG content ([3]; final serum): 606.77 ± 259.06 µg/mL
serum IgM content ([3]; final serum): 177.1 ± 35.59 µg/mL
saliva sIgA content ([3]; upper respiratory tract saliva): 13.9 ± 4.08 µg/mL

Source: patent US12673081B2, “Traditional CHINESE medicine compound composition with immune bidirectional regulation effect and preparation method and applications thereof” (Chenland Nutritionals Inc., priority 2020, dated 2026)
